Read-outs that look alike come from different tables or passages of the source.
Key:
Human Panelists [1] = test: Difference from Reference human taste test (Table B); type: in vivo; conditions: 5 μM compound + 6% fructose/glucose, pH 7.1
From the text: Purpose: To determine how the intensity of a test sample of an experimental compound differs from that of a reference sample in terms of sweetness. This type of study requires a larger number of evaluations in order to obtain statistically significant data, so the test may be repeated with the same or additional panelists.
Subjects rate the difference in intensity of the test sample compared to the reference sample for the key attribute on a scale of −5 (much less sweet than the reference) to +5 (much sweeter than the reference). A score of 0 indicates the test sample is equally as sweet as the reference.
Procedure: Ten or more Subjects are used for the Difference from Reference tests. Subjects have been previously familiarized with the key attribute taste and are trained to use the −5 to +5 scale. Subjects refrain from eating or drinking (except water) for at least 1 hour prior to the test. Subjects eat a cracker and rinse with water four times to clean the mouth. […]
The scores for each test are averaged across Subjects and standard error is calculated. Panel accuracy can be determined using the score from the blind reference test. […]

[2] = target: T1, hT1R2/hT1R3 sweet receptor expressed in HEK293 cell line (Homo sapiens, UniProt Q7RTX0+Q8TE23); test: In vitro hT1R2/hT1R3-HEK293 taste receptor activation assay (FLIPR); type: cell-based
T1 construct: expressed in transfected cells; host or cells: HEK293 derivative stably expressing Gα15 and hT1R2/hT1R3, clone S-9
T1 sequence (Q8TE23 20-839): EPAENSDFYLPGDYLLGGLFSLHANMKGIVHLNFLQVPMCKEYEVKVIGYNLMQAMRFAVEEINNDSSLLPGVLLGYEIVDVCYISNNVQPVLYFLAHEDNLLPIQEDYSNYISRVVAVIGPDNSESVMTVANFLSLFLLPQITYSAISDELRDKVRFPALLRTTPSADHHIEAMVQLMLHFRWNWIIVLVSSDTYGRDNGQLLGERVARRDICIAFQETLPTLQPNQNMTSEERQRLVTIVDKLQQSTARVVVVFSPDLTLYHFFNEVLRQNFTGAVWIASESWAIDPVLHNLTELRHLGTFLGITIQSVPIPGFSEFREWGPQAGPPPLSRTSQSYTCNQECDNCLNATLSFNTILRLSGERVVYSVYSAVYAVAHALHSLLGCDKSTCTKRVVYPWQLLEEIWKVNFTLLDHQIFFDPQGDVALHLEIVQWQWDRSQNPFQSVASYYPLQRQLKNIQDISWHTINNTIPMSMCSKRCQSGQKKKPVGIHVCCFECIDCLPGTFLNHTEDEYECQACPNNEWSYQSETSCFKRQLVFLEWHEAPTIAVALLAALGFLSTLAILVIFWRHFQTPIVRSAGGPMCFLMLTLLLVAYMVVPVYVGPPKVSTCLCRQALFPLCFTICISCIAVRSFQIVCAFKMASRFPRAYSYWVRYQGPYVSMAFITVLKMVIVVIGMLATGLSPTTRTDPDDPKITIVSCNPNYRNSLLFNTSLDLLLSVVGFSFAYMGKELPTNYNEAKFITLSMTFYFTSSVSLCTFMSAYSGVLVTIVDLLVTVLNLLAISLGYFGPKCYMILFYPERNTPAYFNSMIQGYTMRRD
T1 sequence (Q7RTX0 21-852): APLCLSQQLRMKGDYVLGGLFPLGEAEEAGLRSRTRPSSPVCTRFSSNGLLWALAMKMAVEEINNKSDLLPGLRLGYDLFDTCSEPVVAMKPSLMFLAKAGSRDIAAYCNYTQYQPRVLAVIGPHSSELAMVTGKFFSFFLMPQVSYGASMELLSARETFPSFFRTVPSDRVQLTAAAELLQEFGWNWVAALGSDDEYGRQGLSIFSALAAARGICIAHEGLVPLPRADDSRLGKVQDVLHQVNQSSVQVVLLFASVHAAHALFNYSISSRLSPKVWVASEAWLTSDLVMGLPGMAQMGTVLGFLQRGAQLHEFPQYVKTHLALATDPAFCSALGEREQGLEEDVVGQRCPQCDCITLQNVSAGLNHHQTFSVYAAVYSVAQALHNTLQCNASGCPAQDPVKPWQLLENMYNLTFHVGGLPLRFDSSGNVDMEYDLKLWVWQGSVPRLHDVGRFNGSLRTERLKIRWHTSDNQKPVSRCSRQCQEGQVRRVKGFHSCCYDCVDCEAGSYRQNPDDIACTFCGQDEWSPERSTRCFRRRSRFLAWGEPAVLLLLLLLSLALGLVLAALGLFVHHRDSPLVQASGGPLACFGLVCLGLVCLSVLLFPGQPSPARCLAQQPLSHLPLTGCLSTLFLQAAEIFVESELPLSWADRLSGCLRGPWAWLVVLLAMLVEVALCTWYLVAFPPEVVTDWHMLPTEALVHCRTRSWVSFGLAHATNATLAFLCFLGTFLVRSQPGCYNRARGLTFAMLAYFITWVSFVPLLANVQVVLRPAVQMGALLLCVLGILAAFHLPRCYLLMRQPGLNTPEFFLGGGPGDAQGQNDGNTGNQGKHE
Summary of the method: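 HEK293 cells stably expressing Gα15 and hT1R2/hT1R3 were loaded with Fluo-3AM (4 μM, 1 h, room temperature), then stimulated at room temperature in D-PBS. Peak fluorescence (ex 480/em 535 nm) was normalized to basal. Dose-responses were run in duplicate over 60 nM–30 μM, normalized to 400 mM D-fructose, and EC50 fitted by free-Hill non-linear regression.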

Human Panelists [3] = test: Line Scale sensory testing human taste test (Table C); type: in vivo; conditions: low sodium buffer pH 7.1
From the text: Purpose: To create a dose-response curve for perceived sweetness intensity of fructose-glucose concentrations. Test samples containing experimental compound are compared to this dose-response curve to determine equivalent sweetness intensity. This type of study requires a number of evaluations in order to obtain statistically significant data, so the test may be repeated with the same or additional panelists.
Overview: A group of eight or more panelists taste solutions including fructose-glucose at various concentrations, as well as the experimental compound, both with and without added fructose-glucose. Panelists rate sweetness intensity of all samples on an unstructured horizontal line scale, anchored from 0 to 10, where 0 equals no sweetness and 10 equals intense sweetness. Scores for sweetness intensity are averaged across panelists. Then using the average scores and/or equation of the line for the fructose-glucose dose-response curve, equivalent sweetness fructose-glucose concentrations are determined for the samples containing experimental compound.
Procedure: Eight or more subjects are used for the Line Scale tests. Subjects have been previously familiarized with the key attribute taste and are trained to use the 0 to 10 unstructured line scale. Subjects refrain from eating or drinking (except water) for at least 1 hour prior to the test. Subjects eat a cracker and rinse with water several times to clean the mouth.
Fructose-glucose solutions are provided at a wide range of concentrations, such as 0%, 2%, 4%, 6%, 8%, and 10% fructose-glucose, in order to create the dose-response curve. Samples containing experimental compound are prepared both alone and in a 6% fructose-glucose solution. All samples are made up in low sodium buffer pH 7.1. In order to aid dispersion, solutions can also be made up in 0.1% ethanol.
The solutions are dispensed in 20 ml volumes into 1 oz. sample cups and served to the subjects at room temperature. All samples are presented in randomized counterbalanced order to reduce response bias. Further, two sessions of testing may be used to check panel precision.
Subjects taste each sample individually and rate sweetness intensity on the line scale prior to tasting the next sample. All samples are expectorated. Subjects may retaste the samples but can only use the volume of sample given. Subjects must rinse with water between samples. Eating an unsalted cracker between sample pairs may be required depending on the samples tasted.
The scores for each sample are averaged across subjects and standard error is calculated. The dose-response curve is plotted graphically, and this may be used to ensure the panel is rating accurately; i.e. increasing the concentration of fructose-glucose should correspond to increased average scores for sweetness. A 2-way ANOVA (factors being samples and panelists) and multiple comparison tests (such as Tukey's Honestly Significant Difference test) can be used to determine differences among samples and/or panelists. A 3-way ANOVA, with sessions as the third factor, can be used to determine if there is any difference in the ratings between sessions.

[4] = read-out: EC50 for activation of a hT1R2/hT1R3 sweet receptor expressed in HEK293 cell line
[5] = 10 μM compound + 6% fructose/glucose
[6] = 5 μM compound + 6% fructose/glucose

| SMILES | EC50 [2, 4] | EC50 ([2]; Table A, read-out: SWEET EC50) | further results |
| --- | --- | --- | --- |
| Cc1cscc1-c1ccc(C(C)(C)C(=O)NCC(C)C)cc1 [Compound 2, N-Isobutyl-2-methyl-2-(4-(4-methylthiophen-3-yl)phenyl)propanamide] | 850 nM |  | Perceived Equivalent Sweet Solution (Human Panelists [1]): ≥ 9% fructose/glucose |
| CC(C)CNC(=O)C(C)(C)c1ccc(-c2cncc(C#N)n2)cc1 [Compound 20, 2-(4-(6-cyanopyrazin-2-yl)phenyl)-N-isobutyl-2-methylpropanamide] | 20 nM |  | Perceived Equivalent Sweet Solution (Human Panelists [3]; [5]): Equal to 10% fructose/ % fructose/glucose; Perceived Equivalent Sweet Solution (Human Panelists [3]; 10 μM compound alone): Equal to 6% fructose/ % fructose/glucose |
| CCC(C)CNC(=O)C(C)(C)c1ccc(-c2cncnc2)cc1 (stereo not shown) [Compound 25, 2-methyl-N-(2-methylbutyl)-2-(4-(pyrimidin-5-yl)phenyl)propanamide] | 230 nM |  | Perceived Equivalent Sweet Solution (Human Panelists [3]; [5]): Equal to 10% fructose/ % fructose/glucose |
| COCc1cccc(-c2ccc(C(C)(C)C(=O)NCC(C)C)cc2OC)c1 [Compound 27, N-isobutyl-2-(2-methoxy-3′-(methoxymethyl)biphenyl-4-yl)-2-methylpropanamide] | 260 nM |  | Perceived Equivalent Sweet Solution (Human Panelists [3]; [6]): Equal to 8% fructose/ % fructose/glucose |
| COCc1cccc(-c2ccc(C(C)(C)C(=O)NCC(C)C)cc2)c1 [Compound 30, N-isobutyl-2-(3′-(methoxymethyl)biphenyl-4-yl)-2-methylpropanamide] | 610 nM |  | Perceived Equivalent Sweet Solution (Human Panelists [3]; [6]): Equal to 10% fructose/ % fructose/glucose |
| COCc1cncc(-c2ccc(C(C)(C)C(=O)NCC(C)C)cc2)c1 [Compound 32, N-isobutyl-2-(4-(5-(methoxymethyl)pyridin-3-yl)phenyl)-2-methylpropanamide] | 910 nM |  | Perceived Equivalent Sweet Solution (Human Panelists [3]; [5]): Equal to 8% fructose/ % fructose/glucose |
| CC(C)CNC(=O)C(C)(C)c1ccc(-c2cccn2C)cc1 [Compound 34, N-isobutyl-2-methyl-2-(4-(1-methyl-1H-pyrrol-2-yl)phenyl)propanamide] | 960 nM |  | Perceived Equivalent Sweet Solution (Human Panelists [3]; [6]): Equal to 8% fructose/ % fructose/glucose; melting point: 59 to 60 °C |
| CC[C@@H](CO)NC(=O)C(C)(C)c1ccc(-c2cccc(COC)c2)cc1 [Compound 39, (S)-N-(1-hydroxybutan-2-yl)-2-(3′-(methoxymethyl)biphenyl-4-yl)-2-methylpropanamide] | 1870 nM |  | Perceived Equivalent Sweet Solution (Human Panelists [3]; 15 μM compound + 6% fructose/glucose): Equal to 8% fructose/ % fructose/glucose; melting point: 73 to 75 °C |
| CC(C)CNC(=O)C(C)(C)c1ccc(-c2cncnc2)cc1 [Compound 43, N-isobutyl-2-methyl-2-(4-(pyrimidin-5-yl)phenyl)propanamide] | 1010 nM |  | Perceived Equivalent Sweet Solution (Human Panelists [3]; [5]): Equal to 8% fructose/ % fructose/glucose |

Second part, led by results:

| EC50 [2, 4] | EC50 ([2]; Table A, read-out: SWEET EC50) | SMILES | further results |
| --- | --- | --- | --- |
|  | 210 nM | CC(C)CNC(=O)C(C)(C)c1ccc(-c2cncc(OC(C)C)c2)cc1 [Compound A87] |  |
|  | 370 nM | COc1ccc([C@@H](C)NC(=O)C(C)(C)c2ccc(-c3cncnc3)cc2)cc1 [Compound A88] |  |
|  | 410 nM | CC(C)(C(=O)NC1CCCCC1)c1ccc(-c2cncnc2)cc1 [Compound A89] |  |
|  | 480 nM | CCCNC(=O)C(C)(C)c1ccc(-c2cncc(C#N)c2)cc1 [Compound A90] |  |
|  | 620 nM | CCC(CC)CNC(=O)C(C)(C)c1ccc(-c2cncc(C#N)c2)cc1 [Compound A91] |  |
|  | 630 nM | CC(C)CNC(=O)C(C)(C)c1ccc(-c2cc(CO)ccc2C=O)cc1 [Compound A92] |  |
|  | 900 nM | CCC(C(=O)NCC(C)C)c1ccc(-c2ccccc2)cc1 (stereo not shown) [Compound A93] |  |
